According to patent publication US20240182420A1, “MICROBIOCIDAL ISONICOTINIC AMIDE DERIVATIVES” (SYNGENTA CROP PROTECTION AG, priority 2021, published 2024):

Experiments:
[1] = tested on: Botryotinia fuckeliana syn. Botrytis cinerea; experiment: Botryotinia fuckeliana syn. Botrytis cinerea (gray mould), liquid culture growth inhibition; format: cell-based; conditions: PDB nutrient broth, 24° C., 72 hrs, photometric, vs untreated control
Description: (§1) Conidia of the fungus from cryogenic storage were directly mixed into nutrient broth (PDB potato dextrose broth). A DMSO solution of the test compounds was placed into a microtiter plate (96-well format) and the nutrient broth containing the fungal spores was added to it. The test plates were incubated at 24° C. and the inhibition of growth was determined photometrically after 72 hrs.

[2] = tested on: Botryotinia fuckeliana syn. Botrytis cinerea; experiment: Botryotinia fuckeliana syn. Botrytis cinerea (grey mold on tomato), tomato plants; format: in vivo; conditions: tomato plants cv. Roter Gnom, inoculated two days after application, leaf area covered by disease 5-6 days after application
Description: 4-week old tomato plants cv. Roter Gnom are treated sprayed in a spray chamber with the formulated test compound diluted in water. The test plants are inoculated by spraying them with a spore suspension two days after application. The inoculated test plants are incubated at 20° C. and 95% rh in a greenhouse and the percentage leaf area covered by disease is assessed when an appropriate level of disease appears on untreated check plants (5-6 days after application).

[3] = tested on: Glomerella lagenarium syn Colletotrichum lagenarium; experiment: Glomerella lagenarium syn. Colletotrichum lagenarium (anthracnose), liquid culture growth inhibition; format: cell-based; conditions: Colletotrichum orbiculare, PDB nutrient broth, 24° C., 72 hrs, 620 nm, vs untreated control
Description: as §1, with “hrs at 620 nm.” for “hrs.”

[4] = tested on: Monographella nivalis syn. Microdochium nivale, Fusarium nivale; experiment: Monographella nivalis syn. Microdochium nivale (snow mould, foot rot), liquid culture growth inhibition; format: cell-based; conditions: PDB nutrient broth, 24° C., 72 hrs, 620 nm, vs untreated control
Description: as §1, with “hrs at 620 nm.” for “hrs.”

Row | SMILES | inhibition of growth at 20 ppm [1] | pest or weed control at 200 ppm [2] | inhibition of growth at 20 ppm [3] | inhibition of growth at 20 ppm [4]
1 | Cc1cccc(Oc2cnc(Cl)cc2C(=O)NCCc2ccc(Cl)cc2Cl)c1 [Compound 1.4, 2-chloro-N-[2-(2,4-dichlorophenyl)ethyl]-5-(3-methylphenoxy)pyridine-4-carboxamide] | ≥ 80% | ≥ 50% |  | 
2 | O=C(NCC(F)c1ccc(Cl)cc1Cl)c1c(F)cncc1Oc1cccc(C2CC2)c1 (centres unmarked) [Compound 1.6, 3-(3-cyclopropyl-phenoxy)-N-[2-(2,4-dichlorophenyl)-2-fluoro-ethyl]-5-fluoro-pyridine-4-carboxamide] | ≥ 80% | ≥ 50% | ≥ 80% | 
3 | O=C(NCC(F)c1ccc(Cl)cc1Cl)c1cc(C(F)(F)F)ncc1Oc1cccc(C2CC2)c1 (centres unmarked) [Compound 1.9, 5-(3-cyclopropyl-phenoxy)-N-[2-(2,4-dichlorophenyl)-2-fluoro-ethyl]-2-(trifluoromethyl) pyridine-4-carboxamide] | ≥ 80% | ≥ 50% | ≥ 80% | 
4 | CS(=O)(=O)c1cc(C(=O)NCC(F)c2ccc(Cl)cc2Cl)c(Oc2cccc(C3CC3)c2)cn1 (centres unmarked) [Compound 1.10, 5-(3-cyclopropyl-phenoxy)-N-[2-(2,4-dichlorophenyl)-2-fluoro-ethyl]-2-methylsulfonyl-pyridine-4-carboxamide] | ≥ 80% | ≥ 50% | ≥ 80% | 
5 | O=C(NCC(F)c1ccc(Cl)cc1Cl)c1ccncc1Oc1cccc(C2CC2)c1 (centres unmarked) [Compound 1.11, 3-(3-cyclopropyl-phenoxy)-N-[2-(2,4-dichlorophenyl)-2-fluoro-ethyl]pyridine-4-carboxamide] |  | ≥ 50% | ≥ 80% | 
6 | O=C(NCCc1ccc(Cl)cc1Cl)c1cc(Cl)ncc1Oc1cccc(C2CC2)c1 [Compound 1.15, 2-chloro-5-(3-cyclopropyl-phenoxy)-N-[2-(2,4-dichlorophenyl)ethyl]pyridine-4-carboxamide] | ≥ 80% | ≥ 50% | ≥ 80% | 
7 | O=C(NCC(F)c1ccc(Cl)cc1Cl)c1cc(Cl)ncc1Oc1cccc(C2CC2)c1 (centres unmarked) [Compound 1.16, 2-chloro-5-(3-cyclopropyl-phenoxy)-N-[2-(2,4-dichlorophenyl)-2-fluoro-ethyl]pyridine-4-carboxamide] | ≥ 80% | ≥ 50% | ≥ 80% | 
8 | O=C(NCCc1ccc(Cl)cc1Cl)c1c(Cl)cncc1Oc1cccc(C2CC2)c1 [Compound 1.21, 3-chloro-5-(3-cyclopropyl-phenoxy)-N-[2-(2,4-dichlorophenyl)ethyl]pyridine-4-carboxamide] | ≥ 80% | ≥ 50% | ≥ 80% | 
9 | O=C(NCC(F)c1ccc(Cl)cc1Cl)c1cc(C2CC2)ncc1Oc1cccc(C2CC2)c1 (centres unmarked) [Compound 1.22, 2-cyclopropyl-5-(3-cyclopropyl-phenoxy)-N-[2-(2,4-dichlorophenyl)-2-fluoro-ethyl]pyridine-4-carboxamide] | ≥ 80% | ≥ 50% | ≥ 80% | 
10 | O=C(NCC1(c2ccc(F)cc2)CCC1)c1cc(Cl)ncc1Oc1cccc(C2CC2)c1 [Compound 1.28, 2-chloro-5-(3-cyclopropyl-phenoxy)-N-[[1-(4-fluorophenyl)cyclobutyl]methyl] pyridine-4-carboxamide] |  |  |  | ≥ 80%
11 | COc1ccc(CCNC(=O)c2cc(Cl)ncc2Oc2cccc(C3CC3)c2)cc1 [Compound 1.35, 2-chloro-5-(3-cyclopropyl-phenoxy)-N-[2-(4-methoxyphenyl)ethyl]pyridine-4-carboxamide] | ≥ 80% | ≥ 50% | ≥ 80% | 
12 | Cc1ccccc1CCNC(=O)c1cc(Cl)ncc1Oc1cccc(C2CC2)c1 [Compound 1.36, 2-chloro-5-(3-cyclopropyl-phenoxy)-N-[2-(o-tolyl)ethyl]pyridine-4-carboxamide] |  |  |  | ≥ 80%
13 | C#Cc1cccc(Oc2cnc(C)cc2C(=O)NCC(F)c2ccc(C)cc2C)c1 (centres unmarked) [Compound 1.38, N-[2-(2,4-dimethylphenyl)-2-fluoro-ethyl]-5-(3-ethynylphenoxy)-2-methyl-pyridine-4-carboxamide] | ≥ 80% | ≥ 50% |  | 
14 | C#Cc1cccc(Oc2cnc(Br)cc2C(=O)NCC(F)c2ccc(C)cc2C)c1 (centres unmarked) [Compound 1.43, 2-bromo-N-[2-(2,4-dimethylphenyl)-2-fluoro-ethyl]-5-(3-ethynylphenoxy) pyridine-4-carboxamide] | ≥ 80% | ≥ 50% | ≥ 80% | 
15 | COc1ccc(CCNC(=O)c2cc(Cl)ncc2Oc2ccccc2)cc1OC [Compound 1.44, 2-chloro-N-[2-(3,4-dimethoxyphenyl)ethyl]-5-phenoxy-pyridine-4-carboxamide] |  |  |  | ≥ 80%
16 | O=C(NC1(Cc2ccccc2)CC1)c1cc(Cl)ncc1Oc1cccc(C2CC2)c1 [Compound 1.49, N-(1-benzylcyclopropyl)-2-chloro-5-(3-cyclopropylphenoxy) pyridine-4-carboxamide] |  |  |  | ≥ 80%
17 | Cc1cc(C)cc(CCNC(=O)c2cc(Cl)ncc2Oc2cccc(C3CC3)c2)c1 [Compound 1.50, 2-chloro-5-(3-cyclopropylphenoxy)-N-[2-(3,5-dimethylphenyl)ethyl]pyridine-4-carboxamide] |  |  |  | ≥ 80%
18 | O=C(NCC(F)c1ccc(F)cc1F)c1cc(Cl)ncc1Oc1cccc(C2CC2)c1 (centres unmarked) [Compound 1.58, 2-chloro-5-(3-cyclopropyl-phenoxy)-N-[2-(2,4-difluorophenyl)-2-fluoro-ethyl]pyridine-4-carboxamide] | ≥ 80% | ≥ 50% | ≥ 80% | 
19 | COc1cccc(Oc2cnc(Cl)cc2C(=O)NCC(F)c2ccc(Cl)cc2Cl)c1 (centres unmarked) [Compound 1.61, 2-chloro-N-[2-(2,4-dichlorophenyl)-2-fluoro-ethyl]-5-(3-methoxyphenoxy) pyridine-4-carboxamide] | ≥ 80% | ≥ 50% | ≥ 80% | 
20 | CCc1ccc(C(F)CNC(=O)c2cc(Cl)ncc2Oc2cccc(C3CC3)c2)c(F)c1 (centres unmarked) [Compound 1.80, 2-chloro-5-(3-cyclopropyl-phenoxy)-N-[2-(4-ethyl-2-fluoro-phenyl)-2-fluoro-ethyl]pyridine-4-carboxamide] | ≥ 80% | ≥ 50% | ≥ 80% | 
21 | C#Cc1ccc(C(F)CNC(=O)c2cc(Cl)ncc2Oc2cccc(C3CC3)c2)c(F)c1 (centres unmarked) [Compound 1.82, 2-chloro-5-(3-cyclopropyl-phenoxy)-N-[2-(4-ethynyl-2-fluoro-phenyl)-2-fluoro-ethyl]pyridine-4-carboxamide] | ≥ 80% | ≥ 50% | ≥ 80% | 
22 | COc1cncc(Oc2cccc(C3CC3)c2)c1C(=O)NCC(F)c1ccc(Cl)cc1Cl (centres unmarked) [Compound 1.91, 3-(3-cyclopropyl-phenoxy)-N-[2-(2,4-dichlorophenyl)-2-fluoro-ethyl]-5-methoxy-pyridine-4-carboxamide] | ≥ 80% | ≥ 50% | ≥ 80% | 
